Measurements reported in ChEMBL document CHEMBL5226390, “Synthesis and Structure-Activity Analysis of Icaritin Derivatives as Potential Tumor Growth Inhibitors of Hepatocellular Carcinoma Cells” (J Nat Prod, 2023).
Calls of active or inactive are those of the source. The calls are words filed in the database; no cut-off is given here.

What was measured:
SMMC-7721 [1] = assay: Induction of apoptosis in human SMMC-7721 cells assessed as viable cells at 2 uM incubated for 48 hrs by AnnexinV-FITC/PI staining based flow cytometry (reference value: 85.1%); assay type: functional; conditions: read-out: Activity
HepG2 [2] = assay: Induction of cell cycle arrest in human HepG2 cells assessed as accumulation of cells at S phase at 4 uM incubated for 48 hrs by PI staining based flow cytometry (reference value: 18%); assay type: functional
SMMC-7721 [3] = assay: Induction of apoptosis in human SMMC-7721 cells assessed as early apoptotic cells at 2 uM incubated for 48 hrs by AnnexinV-FITC/PI staining based flow cytometry (reference value: 1.13%); assay type: functional
SMMC-7721 [4] = assay: Induction of apoptosis in human SMMC-7721 cells assessed as late apoptotic cells at 8 uM incubated for 48 hrs by AnnexinV-FITC/PI staining based flow cytometry (reference value: 1.51%); assay type: functional
SMMC-7721 [5] = assay: Induction of cell cycle arrest in human SMMC-7721 cells assessed as accumulation of cells at G0/G1 phase at 2 uM incubated for 48 hrs by PI staining based flow cytometry (reference value: 59.57%); assay type: functional
SMMC-7721 [6] = assay: Induction of cell cycle arrest in human SMMC-7721 cells assessed as accumulation of cells at S phase at 2 uM incubated for 48 hrs by PI staining based flow cytometry (reference value: 24.94%); assay type: functional
HepG2 [7] = assay: Antiproliferative activity against human HepG2 cells assessed as reduction in cell viability incubated for 48 hrs by MTT assay; assay type: functional, cell-based; conditions: HepG2, 48 h
SMMC-7721 [8] = assay: Antiproliferative activity against human SMMC-7721 cells assessed as reduction in cell viability incubated for 48 hrs by MTT assay; assay type: functional, cell-based; conditions: Homo sapiens, SMMC-7721, 48 h; read-out: IC50
SMMC-7721 [9] = assay: Induction of cell cycle arrest in human SMMC-7721 cells assessed as downregulation of CDK4 protein expression at 2 to 8 uM incubated for 48 hrs by western blot analysis; assay type: functional, cell-based; conditions: dose 2-8 µM
SMMC-7721 [10] = assay: Induction of cell cycle arrest in human SMMC-7721 cells assessed as accumulation of cells at G0/G1 phase at 8 uM incubated for 48 hrs by PI staining based flow cytometry (reference value: 59.57%); assay type: functional
HepG2 [11] = assay: Induction of cell cycle arrest in human HepG2 cells assessed as accumulation of cells at G0/G1 phase at 4 uM incubated for 48 hrs by PI staining based flow cytometry (reference value: 64.11%); assay type: functional
HepG2 [12] = assay: Induction of apoptosis in human HepG2 cells assessed as necrotic cells at 2 uM incubated for 48 hrs by AnnexinV-FITC/PI staining based flow cytometry (reference value: 2.22%); assay type: functional
SMMC-7721 [13] = assay: Induction of cell cycle arrest in human SMMC-7721 cells assessed as downregulation of Cdc2 protein expression at 2 to 8 uM incubated for 48 hrs by western blot analysis; assay type: functional, cell-based; conditions: dose 2-8 µM
HepG2 [14] = assay: Induction of cell cycle arrest in human HepG2 cells assessed as accumulation of cells at G0/G1 phase at 8 uM incubated for 48 hrs by PI staining based flow cytometry (reference value: 64.11%); assay type: functional
HepG2 [15] = assay: Induction of cell cycle arrest in human HepG2 cells assessed as downregulation of p34 protein expression at 2 to 8 uM incubated for 48 hrs by western blot analysis; assay type: functional, cell-based; conditions: dose 2-8 µM
SMMC-7721 [16] = assay: Induction of apoptosis in human SMMC-7721 cells assessed as viable cells at 8 uM incubated for 48 hrs by AnnexinV-FITC/PI staining based flow cytometry (reference value: 85.1%); assay type: functional; conditions: read-out: Activity
Hep 3B2 = assay: Antiproliferative activity against human Hep3B cells assessed as reduction in cell viability incubated for 48 hrs by MTT assay; assay type: functional, cell-based
SMMC-7721 [17] = assay: Induction of apoptosis in human SMMC-7721 cells assessed as necrotic cells at 4 uM incubated for 48 hrs by AnnexinV-FITC/PI staining based flow cytometry (reference value: 12.3%); assay type: functional
HepG2 [18] = assay: Induction of cell cycle arrest in human HepG2 cells assessed as accumulation of cells at G2/M phase at 4 uM incubated for 48 hrs by PI staining based flow cytometry (reference value: 17.89%); assay type: functional
SMMC-7721 [19] = assay: Induction of cell cycle arrest in human SMMC-7721 cells assessed as downregulation of p34 protein expression at 2 to 8 uM incubated for 48 hrs by western blot analysis; assay type: functional, cell-based; conditions: dose 2-8 µM
HepG2 [20] = assay: Induction of apoptosis in human HepG2 cells assessed as late apoptotic cells at 4 uM incubated for 48 hrs by AnnexinV-FITC/PI staining based flow cytometry (reference value: 3.23%); assay type: functional
HepG2 [21] = assay: Induction of cell cycle arrest in human HepG2 cells assessed as upregulation of p21 protein expression at 2 to 8 uM incubated for 48 hrs by western blot analysis; assay type: functional, cell-based; conditions: dose 2-8 µM
HepG2 [22] = assay: Induction of apoptosis in human HepG2 cells assessed as late apoptotic cells at 8 uM incubated for 48 hrs by AnnexinV-FITC/PI staining based flow cytometry (reference value: 3.23%); assay type: functional
SMMC-7721 [23] = assay: Induction of apoptosis in human SMMC-7721 cells assessed as late apoptotic cells at 2 uM incubated for 48 hrs by AnnexinV-FITC/PI staining based flow cytometry (reference value: 1.51%); assay type: functional
HepG2 [24] = assay: Induction of apoptosis in human HepG2 cells assessed as early apoptotic cells at 8 uM incubated for 48 hrs by AnnexinV-FITC/PI staining based flow cytometry (reference value: 3.41%); assay type: functional
SMMC-7721 [25] = assay: Induction of cell cycle arrest in human SMMC-7721 cells assessed as accumulation of cells at G0/G1 phase at 4 uM incubated for 48 hrs by PI staining based flow cytometry (reference value: 59.57%); assay type: functional

COc1ccc(-c2oc3c(CC=C(C)C)c(OCCN4CCCC4)cc(O)c3c(=O)c2O[C@H]2O[C@H](C)[C@@H](O)[C@H](O)[C@@H]2O)cc1
viability at 2 µM (SMMC-7721 [1]): 89.4%
Activity (HepG2 [2]): 9.28%
Activity (SMMC-7721 [3]): 1.73%
Activity (SMMC-7721 [4]): 8.46%
Activity (SMMC-7721 [5]): 63.01%
Activity (SMMC-7721 [6]): 23.71%
IC50 (HepG2 [7]): 7.6 µM
IC50 (SMMC-7721 [8]): 3.1 µM
Activity (SMMC-7721 [9]): Active
Activity (SMMC-7721 [10]): 78.65%
Activity (HepG2 [11]): 80.03%
Activity (HepG2 [12]): 8.93%
Activity (SMMC-7721 [13]): Active
Activity (HepG2 [14]): 91.15%
Activity (HepG2 [15]): Active
viability at 8 µM (SMMC-7721 [16]): 66.2%
IC50 (Hep 3B2): 3.9 µM
Activity (SMMC-7721 [17]): 0.956%
Activity (HepG2 [18]): 10.7%
Activity (SMMC-7721 [19]): Active
Activity (HepG2 [20]): 5.47%
Activity (HepG2 [21]): Active
Activity (HepG2 [22]): 17.7%
Activity (SMMC-7721 [23]): 5.9%
Activity (HepG2 [24]): 3.42%
Activity (SMMC-7721 [25]): 65.57%
